Bounds are passed on as bounds.

The target in the assay is T1, chymotrypsin-like activity of 20S proteasome (Bos taurus, UniProt Q2TBX6+Q32KL2).
T1 construct: was purified to homogeneity from bovine brain according to published methods; from tissue; host or cells: bovine brain
Description: 20S proteasome chymotryptic activity inhibition assay (Suc-Leu-Leu-Val-Tyr-AMC cleavage). It is filed as biochemical. The conditions noted are these: 2 μg 20S proteasome from bovine brain, 50 μM fluorogenic substrate, 15 minutes at 37° C., pH7.5. The method in brief:
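Bovine brain 20S proteasome (2 μg) with inhibitor at 0.1-100 μg/ml in 50 mM HEPES, 0.1% SDS, pH7.5. Reaction started with 50 μM Suc-LLVY-AMC, run 15 min at 37° C, stopped with pH 4.0 acetate; liberated AMC read by fluorescence (EX 370 nm, EM 430 nm).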
For `CC(C)CC(NC(=O)C(Cc1ccccc1)NC(=O)C(=O)Cc1c[nH]c2ccccc12)C(=O)NCC(=O)O` (stereo not shown) [Compound 55], the “IC50 for the inhibition of the chymotrypsin-like activity of 20S proteasome” value (shortened to “IC50 for the inhibition”) was above 10 µg/mL.
On to `CC(C)CC(NC(=O)C(CC(C)C)NC(=O)C(CC(C)C)NC(=O)C(=O)Cc1c[nH]c2ccccc12)C(=O)O` (stereo not shown) [Compound 33], for which the “IC50 for the inhibition” value was above 10 µg/mL.
The same measure, in the same setting: the figure for `CC(C)CC(NC(=O)C(Cc1ccc(O)cc1)NC(=O)C(=O)Cc1c[nH]c2ccccc12)C(=O)NC(C(=O)O)C(C)C` (stereo not shown) [Compound 46] is above 10 µg/mL; for `CC(C)CC(NC(=O)C(CC(C)C)NC(=O)C(=O)c1ccccc1)C(=O)O` (stereo not shown) [Compound 11] it is above 10 µg/mL.
As usually defined, the IC50 is the midpoint of a concentration-inhibition curve. Higher therefore signals weaker potency in that assay. On to `CCCCC(NC(=O)C(CC(C)C)NC(=O)C(CCC)NC(=O)C(=O)Cc1c[nH]c2ccccc12)C(=O)O` (stereo not shown) [Compound 127], for which the half-maximal inhibitory concentration (IC50) is above 18.9 µM.
In the case of `CCCCC(NC(=O)C(=O)Cc1c[nH]c2ccccc12)C(=O)NC(CC(C)C)C(=O)NC(Cc1ccccc1)C(=O)O` (stereo not shown) [Compound 106], the “IC50 for the inhibition” value is above 10 µg/mL.
As to `CC(C)CC(NC(=O)C(NC(=O)C(=O)Cc1c[nH]c2ccccc12)C(C)O)C(=O)NC(C)C(=O)O` (stereo not shown) [Compound 71], the “IC50 for the inhibition” value was above 10 µg/mL.
The same measure, in the same setting: under `CC(C)CC(NC(=O)C(C)NC(=O)C(=O)Cc1c[nH]c2ccccc12)C(=O)NC(CCC(=O)O)C(=O)O` (stereo not shown) [Compound 154] stands above 10 µg/mL; under `CC(C)CC(NC(=O)C(Cc1ccc(-c2ccccc2)cc1)NC(=O)C(=O)Cc1c[nH]c2ccccc12)C(=O)NCC(=O)O` (stereo not shown) [Compound 66], above 10 µg/mL; under `CC(C)CC(NC(=O)CNC(=O)C(=O)Cc1c[nH]c2ccccc12)C(=O)NC(Cc1ccccc1)C(=O)O` (stereo not shown) [Compound 104], above 10 µg/mL.
For `CC(C)CC(NC(=O)C(Cc1ccc2ccccc2c1)NC(=O)C(=O)Cc1c[nH]c2ccccc12)C(=O)NCC(=O)O` (stereo not shown) [Compound 65], the “IC50 for the inhibition” value was above 10 µg/mL.
Turning to `CC(C)CC(NC(=O)C(Cc1cccnc1)NC(=O)C(=O)Cc1c[nH]c2ccccc12)C(=O)NC(C)C(=O)O` (stereo not shown) [Compound 79], the “IC50 for the inhibition” value is above 10 µg/mL.
With `CC(C)CC(NC(=O)CCNC(=O)C(=O)Cc1c[nH]c2ccccc12)C(=O)NC(CO)C(=O)O` (stereo not shown) [Compound 90], the “IC50 for the inhibition” value is above 10 µg/mL.
On the same count and under the same terms, under `CC(C)CC(NC(=O)C(=O)Cc1c[nH]c2ccccc12)C(=O)NC(Cc1ccccc1)C(=O)O` (stereo not shown) [Compound 182] stands above 10 µg/mL; under `CC(C)CC(NC(=O)C(Cc1ccc(O)cc1)NC(=O)C(=O)Cc1c[nH]c2ccccc12)C(=O)NC(CO)C(=O)O` (stereo not shown) [Compound 98], above 10 µg/mL.
For `CC(C)CC(NC(=O)C(Cc1ccc(-c2ccccc2)cc1)NC(=O)C(=O)Cc1c[nH]c2ccccc12)C(=O)NC(CC(N)=O)C(=O)O` (stereo not shown) [Compound 185], the “IC50 for the inhibition” value is 5 µg/mL.
Same read-out and setting: the figure for `CCCC(NC(=O)C(=O)Cc1c[nH]c2ccccc12)C(=O)NC(CC(C)C)C(=O)NCC(=O)O` (stereo not shown) [Compound 60] is above 10 µg/mL.
Turning to `CC(C)CC(NC(=O)C(=O)Cc1c[nH]c2ccccc12)C(=O)NC(CC(C)C)C(=O)NC(C)C(=O)O` (stereo not shown) [Compound 30], the IC50 was above 20 µM.
Take `CC(C)CC(NC(=O)C(NC(=O)C(=O)Cc1c[nH]c2ccccc12)C(C)O)C(=O)NC(CO)C(=O)O` (stereo not shown) [Compound 93]: the “IC50 for the inhibition” value was above 10 µg/mL.
With `CC(C)CC(NC(=O)CCNC(=O)C(=O)Cc1c[nH]c2ccccc12)C(=O)NC(Cc1ccc(O)cc1)C(=O)O` (stereo not shown) [Compound 84], the “IC50 for the inhibition” value is above 10 µg/mL.
On to `CC(C)CC(NC(=O)C(=O)Cc1ccccc1)C(=O)NC(CC(C)C)C(=O)NCC(=O)O` (stereo not shown) [Compound 6], for which the “IC50 for the inhibition” value was above 10 µg/mL.
On the same count and under the same terms, under `CC(C)CC(NC(=O)C(=O)Cc1c[nH]c2ccccc12)C(=O)NC(CC(C)C)C(=O)NC(Cc1ccc(O)cc1)C(=O)O` (stereo not shown) [Compound 26] stands above 10 µg/mL; under `CC(C)CC(NC(=O)C(NC(=O)C(=O)Cc1c[nH]c2ccccc12)C(C)O)C(=O)NC(Cc1ccccc1)C(=O)O` (stereo not shown) [Compound 108], above 10 µg/mL; under `CC(C)CC(NC(=O)C(Cc1ccc2ccccc2c1)NC(=O)C(=O)Cc1c[nH]c2ccccc12)C(=O)NC(Cc1cccnc1)C(=O)O` (stereo not shown) [Compound 206], above 10 µg/mL.
Turning to `CC(C)CC(NC(=O)C(C)NC(=O)C(=O)Cc1c[nH]c2ccccc12)C(=O)NC(CO)C(=O)O` (stereo not shown) [Compound 94], the “IC50 for the inhibition” value was above 10 µg/mL.
Take `CC(C)CC(NC(=O)C(NC(=O)C(=O)Cc1c[nH]c2ccccc12)C(C)O)C(=O)NC(CCC(=O)O)C(=O)O` (stereo not shown) [Compound 153]: the “IC50 for the inhibition” value is above 10 µg/mL.
The same measure, in the same setting: the figure for `CC(C)CC(NC(=O)C(CC1CCCCC1)NC(=O)C(=O)Cc1c[nH]c2ccccc12)C(=O)NCC(=O)O` (stereo not shown) [Compound 63] is above 10 µg/mL.
As to `CC(C)CC(NC(=O)C(Cc1ccc(-c2ccccc2)cc1)NC(=O)C(=O)Cc1c[nH]c2ccccc12)C(=O)NC(Cc1ccc(-c2ccccc2)cc1)C(=O)O` (stereo not shown) [Compound 189], the “IC50 for the inhibition” value is above 10 µg/mL.
The same measure, in the same setting: under `CC(C)CC(NC(=O)C(Cc1ccc2ccccc2c1)NC(=O)C(=O)Cc1c[nH]c2ccccc12)C(=O)NCC(=O)O` (stereo not shown) [Compound 170] stands above 10 µg/mL; under `CC(C)CC(NC(=O)C(Cc1ccccc1)NC(=O)C(=O)Cc1c[nH]c2ccccc12)C(=O)NC(CC(=O)O)C(=O)O` (stereo not shown) [Compound 137], above 10 µg/mL.
The same measure, in the same setting: the figure for `CC(C)CC(NC(=O)C(NC(=O)C(=O)Cc1c[nH]c2ccccc12)C(C)C)C(=O)NC(Cc1ccccc1)C(=O)O` (stereo not shown) [Compound 111] is above 10 µg/mL.
Turning to `CC(C)CC(NC(=O)C(Cc1ccc2ccccc2c1)NC(=O)C(=O)Cc1c[nH]c2ccccc12)C(=O)NC(C(=O)O)C(C)C` (stereo not shown) [Compound 164], the “IC50 for the inhibition” value was above 10 µg/mL.
Regarding `CC(C)CC(NC(=O)C(C)NC(=O)C(=O)Cc1c[nH]c2ccccc12)C(=O)NC(CC(=O)O)C(=O)O` (stereo not shown) [Compound 139], the “IC50 for the inhibition” value is above 10 µg/mL.
Same read-out and setting: under `CC(C)CC(NC(=O)C(NC(=O)C(=O)Cc1c[nH]c2ccccc12)C(C)O)C(=O)NC(CC(=O)O)C(=O)O` (stereo not shown) [Compound 138] stands above 10 µg/mL; under `CC(C)CC(NC(=O)C(=O)Cc1ccccc1)C(=O)NC(CC(C)C)C(=O)NCC(=O)NCc1ccccc1` (stereo not shown) [Compound 7], above 10 µg/mL; under `CC(C)CC(NC(=O)C(Cc1ccc(-c2ccccc2)cc1)NC(=O)C(=O)Cc1c[nH]c2ccccc12)C(=O)NC(CCC(N)=O)C(=O)O` (stereo not shown) [Compound 186], above 10 µg/mL.
`CCCC(NC(=O)C(=O)Cc1c[nH]c2ccccc12)C(=O)NC(CC(C)C)C(=O)NC(C)C(=O)O` (stereo not shown) [Compound 75] yielded an IC50 above 20.6 µM.
`CCC(C)C(NC(=O)C(CC(C)C)NC(=O)C(CC(C)C)NC(=O)C(=O)Cc1c[nH]c2ccccc12)C(=O)O` (stereo not shown) [Compound 24]: the “IC50 for the inhibition” value is above 10 µg/mL.
Turning to `CCC(C)C(NC(=O)C(CC(C)C)NC(=O)C(CC(C)C)NC(=O)C(=O)Cc1c[nH]c2ccccc12)C(=O)O` (stereo not shown) [Compound 34], the “IC50 for the inhibition” value is above 10 µg/mL.
The same measure, in the same setting: the figure for `CC(C)CC(NC(=O)C(Cc1cccnc1)NC(=O)C(=O)Cc1c[nH]c2ccccc12)C(=O)NC(CCC(=O)O)C(=O)O` (stereo not shown) [Compound 161] is above 10 µg/mL.
The same measure, in the same setting: the figure for `CCCCC(NC(=O)C(CC(C)C)NC(=O)C(Cc1ccc2ccccc2c1)NC(=O)C(=O)Cc1c[nH]c2ccccc12)C(=O)O` (stereo not shown) [Compound 178] is above 10 µg/mL.
In turn, `CC(C)CC(NC(=O)C(Cc1ccc(-c2ccccc2)cc1)NC(=O)C(=O)Cc1c[nH]c2ccccc12)C(=O)NC(CCCNC(=N)N)C(=O)O` (stereo not shown) [Compound 191] showed an IC50 of 4.31 µM.
The same measure, in the same setting: the figure for `CC(C)C[C@@H](NC(=O)[C@H](CC(=O)O)NC(=O)C(=O)Cc1c[nH]c2ccccc12)C(=O)NCC(=O)O` [Compound 58] is above 20.5 µM.
On to `CC(C)CC(NC(=O)C(CC1CCCCC1)NC(=O)C(=O)Cc1c[nH]c2ccccc12)C(=O)NC(C(=O)O)C(C)C` (stereo not shown) [Compound 172], for which the “IC50 for the inhibition” value is above 10 µg/mL.
In the case of `CC(C)CC(NC(=O)CCNC(=O)C(=O)Cc1c[nH]c2ccccc12)C(=O)NC(C(=O)O)C(C)C` (stereo not shown) [Compound 38], the “IC50 for the inhibition” value was above 10 µg/mL.
As for `CCC(C)C(NC(=O)C(=O)Cc1c[nH]c2ccccc12)C(=O)NC(CC(C)C)C(=O)NC(C(=O)O)C(C)C` (stereo not shown) [Compound 167], the “IC50 for the inhibition” value was above 10 µg/mL.
Same read-out and setting: under `CC(C)CC(NC(=O)C(=O)c1c[nH]c2ccccc12)C(=O)NC(CC(C)C)C(=O)NCC(=O)NCc1ccccc1` (stereo not shown) [Compound 8] stands above 10 µg/mL; under `CC(C)CC(NC(=O)C(NC(=O)C(=O)Cc1c[nH]c2ccccc12)C(C)C)C(=O)NC(C)C(=O)O` (stereo not shown) [Compound 74], above 10 µg/mL.
As to `CC(C)CC(NC(=O)C(Cc1ccc2ccccc2c1)NC(=O)C(=O)Cc1c[nH]c2ccccc12)C(=O)NC(Cc1c[nH]cn1)C(=O)O` (stereo not shown) [Compound 204], the “IC50 for the inhibition” value was above 10 µg/mL.

The record behind these values is US6781000B1, “Alpha-ketoamide inhibitors of 20S proteasome” (CV Theurapeutics, Inc., priority 1998, dated 2004).
